Measurements reported in patent EP2910557A1, “Enantiopure tetrasubstituted pyrrolidines as scaffolds for proteasome inhibitors and medicinal applications thereof” (Ikerchem, S.L., priority 2014, dated 2015).
pEC50, pIC50: −log10 of the molar value.

Legend:
[1] = test system: LoVo; assay: Cancer cell growth inhibition, 72 h treatment; format: cell-based; conditions: Homo sapiens, Colon cancer LoVo, Alamar Blue
Description: (§1) Cell culture-based assays were used to evaluate the ability of compounds of the invention to inhibit cancer cell growth.
(§2) Cells were obtained from the American Type Culture Collection (ATCC) and the European Collection of Cell Cultures. Cells were thawed in their appropriate media plus supplements (see table below). Cells were passaged at confluence by washing once in HBSS cation-free followed by a 3 minutes incubation with trypsin ([0.5 µg/ml]/EDTA [0.2 µg/ml]) (Gibco-BRL, 15400054) solution in HBSS at 37°C (except non-adherent cell lines - hematologic), and transferred to their appropriate media plus supplements. Prior to seeding at defined cell concentration, cells were recovered in medium, centrifuged, taken up in medium and counted.
(§3) All treatments were performed in triplicate. Experiments were carried out in 96-well cell culture plates (Cultek) and the cell lines seeded at the density mentioned in the table above and cultured at 37°C with 5% CO2. After 24h, media were supplemented by 100 µl/well of diluted test compound at variable final concentrations and incubated for 72 hours. Then, AlamarBlue® Reagent (Biosource DAL1100) was added to each well and incubated at 37°C for 4 hours. Relative fluorescent intensity that correlates with the number of living cells was read in a Cytofluor plate reader (Millipore) at 535/590 nm (Excitation/emission). After reading the AlamarBlue® signal, the hexosaminidase activitity was measured according to the following protocol: medium was removed and cells were washed once with PBS. 60 µl of substrate solution (p-nitrophenol-N-acetyl-beta-D-glucosaminide 7.5 mM [Sigma N-9376], sodium citrate 0.1 M, pH 5.0, 0.25% Triton X-1 00) was added to each well and incubated at 37°C for 1-2 hours; after this incubation time, a bright yellow colour appears; then, plates could be developed by adding 90 µl of developer solution (Glycine 50 mM, pH 10.4; EDTA 5 mM), and absorbance was recorded at 405 nm.
(§4) Note: In all cases assays were performed in Alamar Blue with the exception of those indicated (* = Hexosaminidase assay)

[2] = test system: LNCaP; assay: Cancer cell growth inhibition, 72 h treatment; format: cell-based; conditions: Homo sapiens, Prostate cancer LNCaP, Alamar Blue
Description: as §1, §2, §3, §4

[3] = test system: 143b; assay: Cancer cell growth inhibition, 72 h treatment; format: cell-based; conditions: Homo sapiens, Osteosarcoma 143b, Alamar Blue
Description: as §1, §2, §3, §4

[4] = test system: SK-OV-3; assay: Cancer cell growth inhibition, 72 h treatment; format: cell-based; conditions: Homo sapiens, Ovarian cancer SK-OV-3, Alamar Blue
Description: as §1, §2, §3, §4

[5] = test system: SK-HEP-1; assay: Cancer cell growth inhibition, 72 h treatment; format: cell-based; conditions: Homo sapiens, SK-HEP1, Liver cancer SK-HEP-1, Alamar Blue
Description: as §1, §2, §3, §4

[6] = test system: MCF-7; assay: Cancer cell growth inhibition, 72 h treatment; format: cell-based; conditions: Homo sapiens, MCF7, Breast cancer MCF-7, Alamar Blue
Description: as §1, §2, §3, §4

[7] = test system: COLO 205; assay: Cancer cell growth inhibition, 72 h treatment; format: cell-based; conditions: Homo sapiens
Description: as §1, §2, §3, §4

[8] = test system: HT-29; assay: Cancer cell growth inhibition, 72 h treatment; format: cell-based; conditions: Homo sapiens, Colon cancer HT-29, Alamar Blue
Description: as §1, §2, §3, §4

[9] = test system: RAMOS; assay: Cancer cell growth inhibition, 72 h treatment; format: cell-based; conditions: Homo sapiens, Hematologic RAMOS, Alamar Blue
Description: as §1, §2, §3, §4

[10] = test system: DU-145; assay: Cancer cell growth inhibition, 72 h treatment; format: cell-based; conditions: Homo sapiens, Prostate cancer DU-145, Alamar Blue
Description: as §1, §2, §3, §4

[11] = test system: HepG2; assay: Cancer cell growth inhibition, 72 h treatment; format: cell-based; conditions: Homo sapiens, Liver cancer HepG2, Alamar Blue
Description: as §1, §2, §3, §4

[12] = test system: SK-Mel-28; assay: Cancer cell growth inhibition, 72 h treatment; format: cell-based; conditions: Homo sapiens, Melanoma SK-Mel-28, Alamar Blue
Description: as §1, §2, §3, §4

[13] = test system: MDA-MB-435; assay: Cancer cell growth inhibition, 72 h treatment; format: cell-based; conditions: Homo sapiens, Melanoma MDA-MB-435, Alamar Blue
Description: as §1, §2, §3, §4

[14] = test system: PC-3; assay: Cancer cell growth inhibition, 72 h treatment; format: cell-based; conditions: Homo sapiens, Prostate cancer PC-3, Alamar Blue
Description: as §1, §2, §3, §4

[15] = test system: SK-BR-3; assay: Cancer cell growth inhibition, 72 h treatment; format: cell-based; conditions: Homo sapiens, Breast cancer SK-BR-3, Alamar Blue
Description: as §1, §2, §3, §4

[16] = test system: MDA-MB-231; assay: Cancer cell growth inhibition, 72 h treatment; format: cell-based; conditions: Homo sapiens, Breast cancer MDA-MB-231, Alamar Blue
Description: as §1, §2, §3, §4

[17] = test system: MDA-MB-468; assay: Cancer cell growth inhibition, 72 h treatment; format: cell-based; conditions: Homo sapiens, Breast cancer MDA-MB-468, Alamar Blue
Description: as §1, §2, §3, §4

[18] = test system: U-373 MG; assay: Cancer cell growth inhibition, 72 h treatment; format: cell-based; conditions: Homo sapiens, U373 MG, Brain U-373 MG
Description: as §1, §2, §3, §4

[19] = test system: HT-1080; assay: Cancer cell growth inhibition, 72 h treatment; format: cell-based; conditions: Homo sapiens, Fibrosarcoma HT-1080, Alamar Blue
Description: as §1, §2, §3, §4

[20] = test system: OVCAR-3; assay: Cancer cell growth inhibition, 72 h treatment; format: cell-based; conditions: Homo sapiens
Description: as §1, §2, §3, §4

[21] = test system: A431; assay: Cancer cell growth inhibition, 72 h treatment; format: cell-based; conditions: Homo sapiens, A-431, Epidermoid A431, Alamar Blue
Description: as §1, §2, §3, §4

[22] = test system: LS174T; assay: Cancer cell growth inhibition, 72 h treatment; format: cell-based; conditions: Homo sapiens, Colon cancer LS174T, Alamar Blue
Description: as §1, §2, §3, §4

[23] = test system: BxPC-3; assay: Cancer cell growth inhibition, 72 h treatment; format: cell-based; conditions: Homo sapiens
Description: as §1, §2, §3, §4

[24] = target: T1, Human erythrocyte 20S proteasome (Homo sapiens, UniProt P28074); assay: In vitro enzymatic assay of proteasome inhibitory activity (Suc-Leu-Leu-Val-Tyr-AMC substrate); format: biochemical; conditions: for inhibition at 0.05 µM: Concentration 50 nM; for pIC50: human erythrocyte 20S proteasome, 10 µM Suc-Leu-Leu-Val-Tyr-AMC, 37°C
T1 construct: Enzyme: Human erythrocyte 20S proteasome; from tissue; host or cells: human erythrocytes
Description: Example 20: In vitro enzymatic assay of proteasome inhibitory activity.
Substrate: Suc-Leu-Leu-Val-Tyr-AMC
Assay buffer: 250 mM HEPES, pH 7.5, 0.5 mM EDTA, 0.03% SDS, 0.05% Igepal CA-630.
Enzyme: Human erythrocyte 20S proteasome
In vitro proteasome inhibitory activity of the compounds of the invention is evaluated by spectrofluorimetric quantitation of AMC. Stock solutions of compounds of the invention are prepared in dimethyl sulphoxide (DMSO). Test compound and/or vehicle is preincubated with […] enzyme (human erythrocyte 20S proteasome) in modified HEPES buffer pH 7.5 and 1% final concentration of DMSO for 15 minutes at 37°C. The reaction is initiated by addition of 10 µM Suc-Leu-Leu-Val-Tyr-AMC for another 30 minutes incubation period at 37°C. Determination of the release of AMC is read spectrophotometrically (excitation, 380 nm; emission, 460 nm). IC50 values are determined by a non-linear, least squares regression analysis using MathlQTM (ID Business Solutions Ltd., UK).

[25] = Colon cancer COLO 205, Alamar Blue
[26] = Ovarian cancer OVCAR-3, Alamar Blue
[27] = Pancreatic cancer BxPC-3, Alamar Blue

Row | Structure (SMILES) | pEC50 [1] | pEC50 [2] | pEC50 [3] | pEC50 [4] | pEC50 [5] | pEC50 [6] | pEC50 [7, 25] | pEC50 [8] | pEC50 [9] | pEC50 [10] | pEC50 [11] | pEC50 [12] | pEC50 [13] | pEC50 [14] | pEC50 [15] | pEC50 [16] | pEC50 [17] | pEC50 [19] | pEC50 [21] | pEC50 [22] | also measured
1 | CC(C)C[C@H](NC(=O)[C@@H]1N[C@H](c2ccccc2)[C@@H]([N+](=O)[O-])[C@@H]1c1ccco1)B(O)O [Example 11, (R)-1-((2R,3R,4S,5R)-3-(furan-2-yl)-4-nitro-5-phenylpyrrolidine-2-carboxamido)-3-methylbutylboronic acid] | 6.18 | 6.82 | 7.00 | 6.48 | 8.15 | 6.55 | 6.69 | 5.60 | 6.80 | 6.24 | 6.66 | 6.10 | 6.77 | 6.17 | 6.96 | 5.96 | 6.92 | 6.05 | 7.70 | 7.70 | pEC50 ([18]; Hexosaminidase assay (*)): 5.96; pEC50 ([20]; Ovarian cancer OVCAR-3, Hexosaminidase assay (*)): 6.55; pEC50 ([23]; Pancreatic cancer BxPC-3, Hexosaminidase assay (*)): 6.15; inhibition at 0.05 µM [24]: 81%; pIC50 [24]: 8.12
2 | CC(C)C[C@H](NC(=O)[C@@H]1N[C@H](c2ccc3ccccc3c2)[C@@H]([N+](=O)[O-])[C@@H]1c1ccccc1)B(O)O [Example 12, (R)-3-methyl-1-((2R,3R,4S,5R)-5-(naphthalen-2-yl)-4-nitro-3-phenylpyrrolidine-2-carboxamido)butylboronic acid] | 5.77 | 6.92 | 6.43 | 5.85 | 6.80 | 5.89 | 5.62 | 6.07 | 6.30 | 6.46 | 6.30 | 6.21 | 6.68 | 6.52 | 6.24 | 5.49 | 6.00 | 6.34 | 6.39 | 6.59 | pEC50 ([18]; Alamar Blue): 4.96; pEC50 [20, 26]: 6.48; pEC50 [23, 27]: 6.01; inhibition at 0.05 µM [24]: 50%; pIC50 [24]: 7.34
3 | CC(C)C[C@H](NC(=O)[C@@H]1CCCN1)B(O)O [MG-319, {(R)-3-methyl-1-[(S)-pyrrolidine-2-carboxamido]butyl}boronic acid, reference compound] | 4.82 | 5.38 | 6.01 | 4.80 | 5.38 | 4.52 | – | 4.91 | 5.06 | 4.24 | 5.09 | 5.00 | 5.28 | 4.59 | 5.21 | 4.74 | 4.74 | 5.05 | 5.00 | 5.23 | pEC50 ([7]; Colon cancer COLO 205, Hexosaminidase assay (*)): 5.72; pEC50 ([18]; Alamar Blue): 4.04; pEC50 [20, 26]: 5.16; pEC50 [23, 27]: 4.48; inhibition at 0.5 µM ([24]; Concentration 500 nM): 25%
